Results: patent US20190282673A1, “STAPHTAME ACTIVITY ON BIOFILMS” (priority 2016, published 2019)
Where two headings read alike, the source gives them in different places.

Key:
S. aureus BK1 biofilms = experiment: Scanning electron microscopy of treated biofilms in microtitre plates; type: cell-based, Staphylococcus aureus; details: Gentamycin 50 μg/mL; P128 12.5 μg/mL (lowest concentration tested)
Protocol: MRSA strain BK1 or MW2 was used for studying biofilm eradication activity of P128 by SEM. For this, biofilms formed in microtitre plates or on the surface of catheters were treated with increasing concentrations of P128 or antibiotics and subjected to SEM. S. aureus BK1 or MW2 was revived on blood agar plates and the culture was grown overnight in TSB supplemented with 20% glucose. The overnight-grown culture was diluted 1:50 in TSB with 2% glucose to achieve OD600=˜0.1. 200 μL of the diluted culture was aliquoted into each well of the 96 well plate and incubated at 37° C. under static conditions for 18 h. After incubation the contents were aspirated, washed twice with 200 μL of PBS, and 100 μL of media+100 μL of drug were added to each well and incubated again at 37° C. for 18 h. The contents were aspirated, washed with 200 μL of PBS and allowed to dry at 37° C. for 15 min. The individual wells were cut out and biofilms visualized by SEM.

S. aureus = experiment: MIC and checkerboard synergy (broth microdilution) on planktonic cells; type: cell-based, Staphylococcus aureus; details: for MIC: Staphylococcus aureus, read-out: MIC (drug alone)
Protocol: MIC was determined using a modified Clinical and Laboratory Standards Institute (CLSI) broth microdilution procedure described earlier in Vipra, et al. (2012) “Antistaphylococcal activity of bacteriophage derived chimeric protein P128” BMC Microbiol. 12:41-50; and Clinical and Laboratory Standards Institute (2012) “Methods for Dilution Antimicrobial Susceptibility Tests for Bacteria That Grow Aerobically; Approved Standard” CLSI document M07-A9.9 ed. Wayne, Pa. USA. In order to determine effects of combinations of P128 with antibiotics, combinations of various dilutions of P128 and a second drug were tested for growth inhibition using a microdilution checkerboard technique. See Lu, et al. (2013) “In vitro activity of sodium new houttuyfonate alone and in combination with oxacillin or netilmicin against methicillin-resistant Staphylococcus aureus” PLoS One 8:e68053. Briefly, S. aureus culture at a final cell number of 5×10^5 CFU/mL was added to wells of 96-well microtiter plates (precoated with 0.5% BSA), containing two-fold dilutions of P128 and the second drug in cation adjusted Mueller Hinton Broth (CAMHB). The plates were incubated at 37° C. for 24 h and the individual MICs and the combination MICs were read. The fractional inhibitory concentration index (FICI) was determined using the following equation: FICI=(MIC of drug A in the combination/MIC of drug A alone)+(MIC of drug B in the combination/MIC of drug B alone). The combination was considered to be synergistic when the FICI was ≤0.5; additive when FICI was 0.5-1.0; indifferent when FICI was 1-4 and antagonistic when FICI≥4. The experiments were performed in triplicate and repeated twice.
In order to find out whether P128 can act in a synergistic manner with commonly used antibiotics, MIC based growth inhibition assays were performed. MIC based synergy was studied by checkerboard method by determining the FIC index using the method of Lu, et at (2013) “In vitro activity of sodium new houttuyfonate alone and in combination with oxacillin or netilmicin against methicillin-resistant Staphylococcus aureus” PLoS One 8:e68053. […] Similarly.
(§1) Bacterial cultures at a final cell number of 5×10^5 CFU/mL was added to wells of 96-well microtiter plates (precoated with 0.5% BSA), containing two-fold dilutions of P128 and the second drug in cation adjusted Mueller Hinton Broth (CAMHB). The plates were incubated at 37° C. for 24 h and the individual MICs and the combination MICs were read. The fractional inhibitory concentration index (FICI) was determined using the following equation: FICI=(MIC of drug A in the combination/MIC of drug A alone)+(MIC of drug B in the combination/MIC of drug B alone). The combination was considered to be synergistic when the FICI was ≤0.5; additive when FICI was 0.5-1.0; indifferent when FICI was 1-4 and antagonistic when FICI≥4.

S. aureus biofilms = experiment: MBIC and checkerboard synergy on preformed biofilm (MTT assay); type: cell-based, Staphylococcus aureus
Protocol: […] LB supplemented with 50 μg/mL CaCl2 was used for daptomycin treatment wells. The contents of the well was aspirated out and discarded. The biofilm adhered to the wells was quantified by MTT assay as described above. The MBIC was defined as the minimum concentration of P128 or the drug showing no colour development. […] In each experiment, in addition to the combination MBIC, the MBIC of each drug was also determined individually. The fractional MBIC concentrations were determined by MTT dye method as described above. The FICI and synergy was also calculated in a similar manner.
The ability of P128 to inhibit growth of S. aureus in a preformed biofilm was measured by determining minimum biofilm inhibition concentration (MBIC), defined as minimum concentration showing growth inhibition in a MTT based assay. […] 11:226.
The assay was optimized using the standard S. aureus strain ATCC 29213. An overnight-grown culture of the strain was diluted 1:40 in LB broth 200 μL of diluted culture was aliquoted into microtiter plate wells. Microplates were placed in a shaker-incubator set to 37° C., and 100 rpm for 24 h followed by 48 h incubation under static conditions at 37° C. The contents of one set of four wells were aspirated and discarded. Wells were washed twice with 1×PBS and the presence of biofilm in the wells at the end of this 72-hour period was determined by metabolic dye-reduction assay method using MTT (3-(4, 5-dimethylthiazol-5-diphenyltetrazolium bromide; Himedia). In this assay, live cells reduce the dye leading to color formation which can be read at 570 nm, and the intensity of color can be correlated to number of live cells. 100 μL of PBS was added to the wells along with 10 μL of MTT solution. The plate was incubated for 2 h in the dark. After this, 110 μL of solvent solution solubilizing agent was added and the plate was incubated for 15 minutes at ambient temperature with gentle agitation. The absorbance was read at 570 nm in a microplate reader. Another set of four wells was processed for harvesting the biofilm and determination of CFUs present by plating on solid media. For biofilm inhibitory studies, the wells were washed twice with 1×PBS and challenged with various concentrations of P128 or other antibiotic drugs and incubated for 24 h at 37° C. The contents of the well was aspirated out and discarded. The biofilm adhered to the wells was quantified by MTT assay as described above. The MBIC was defined as the minimum concentration of P128 or the drug showing no colour development. […] In each experiment, in addition to the combination MBIC, the MBIC of each drug was also determined individually. The fractional MBIC concentrations were determined by MTT dye method as described above. The FICI and synergy was also calculated in a similar manner.
In order to determine whether P128 could synergize with known anti-Staphylococcus drugs to inhibit S. aureus in biofilms. […] The assays were performed in a 96 well checkerboard format using various concentrations of P128 and one of the antibiotics.

S. epidermidis = experiment: MIC and checkerboard synergy (broth microdilution) on planktonic cells; type: cell-based, Staphylococcus epidermidis; details: for MIC: Staphylococcus epidermidis
Protocol: as §1
S. epidermidis culture at a final cell number of 5×10^5 CFU/mL was added to wells of 96-well microtiter plates (precoated with 0.5% BSA), containing two-fold dilutions of P128 and either Daptomycin or Oxacillin in cation adjusted Mueller Hinton Broth (CAMHB). CAMHB was supplemented with 50 µg/mL Ca^++ for daptomycin assay. The plates were incubated at 37° C. for 24 h and the individual MICs and the combination MICs were read. The fractional inhibitory concentration index (FICI) was determined using the following equation: FICI=(MIC of drug A in the combination/MIC of drug A alone)+(MIC of drug B in the combination/MIC of drug B alone). The combination was considered to be synergistic when the FICI was ≤0.5; additive when FICI was between 0.5-1.0; indifferent when FICI was between 1-4 and antagonistic when FICI was ≥4. The experiments were performed in triplicate and repeated twice.

[1] = Table 4, S. aureus ATCC 29213 preformed biofilm, 6 h
[2] = Table 4, S. aureus ATCC 29213 preformed biofilm, 24 h
[3] = Table 4, S. aureus B9241 preformed biofilm, 6 h
[4] = Table 4, S. aureus B9241 preformed biofilm, 24 h
[5] = Table 4, S. aureus BK1 preformed biofilm, 6 h
[6] = Table 4, S. aureus BK1 preformed biofilm, 24 h

gentamycin [reference compound]
Effect on biofilm by SEM (S. aureus BK1 biofilms): did not have any appreciable effect
MIC (drug alone) (S. aureus; S. aureus ATCC 29213 (MSSA)): 0.4 µg/mL
MIC (drug alone) (S. aureus; S. aureus B9241 (gentamycin and ciprofloxacin resistant)): 62 µg/mL
MIC (drug alone) (S. aureus; S. aureus BK1 (MRSA, ciprofloxacin resistant)): 0.4 µg/mL
MIC on resistant strains (S. aureus; planktonic S. aureus, strains resistant to the drug): 62 µg/mL
MIC on sensitive strains (S. aureus; planktonic S. aureus, strains sensitive to the drug): 0.4 µg/mL
MBIC (individual) (S. aureus biofilms; [1]): >1000 µg/mL
MBIC (individual) (S. aureus biofilms; [2]): >1000 µg/mL
MBIC (individual) (S. aureus biofilms; [3]): >1000 µg/mL
MBIC (individual) (S. aureus biofilms; [4]): >1000 µg/mL
MBIC (individual) (S. aureus biofilms; [5]): >1000 µg/mL
MBIC (individual) (S. aureus biofilms; [6]): >1000 µg/mL
Reduction in MBIC in combination with P128 (S. aureus biofilms; gentamycin sensitive strains ATCC29213 and BK1): > 250 fold

Cc1onc(-c2ccccc2)c1C(=O)N[C@@H]1C(=O)N2[C@@H]1SC(C)(C)[C@@H]2C(=O)O [Oxacillin, oxacillin]
MIC (S. aureus; MRSA / USA300, 24 h, S. aureus USA 300 (MRSA)): > 16 µg/mL
MIC (S. aureus; MRSA, 24 h, MRSA strain BK22): > 16 µg/mL
MIC (S. aureus; MRSA, 24 h, S. aureus COL (MRSA)): > 16 µg/mL
MIC (S. aureus; MRSA, 24 h, S. aureus MW2 (MRSA)): > 16 µg/mL
MIC (drug alone) (S. epidermidis; S. epidermidis B9470): 16 µg/mL
MIC (drug alone) (S. epidermidis; S. epidermidis B9471): 16 µg/mL
MIC (S. epidermidis; S. epidermidis B9467, read-out: MIC (drug alone)): 8 µg/mL
MIC (S. epidermidis; S. epidermidis B9468, read-out: MIC (drug alone)): 0.12 µg/mL
MIC (S. epidermidis; S. epidermidis B9470, read-out: MIC (drug alone)): > 8 µg/mL
MIC (S. epidermidis; S. epidermidis B9471, read-out: MIC (drug alone)): > 8 µg/mL
MIC (S. epidermidis; S. epidermidis B9472, read-out: MIC (drug alone)): 16 µg/mL
MIC (S. epidermidis; S. epidermidis B9473, read-out: MIC (drug alone)): 16 µg/mL
MIC (S. epidermidis; S. epidermidis, read-out: MIC on resistant strains): 0.12 µg/mL
MIC (S. epidermidis; S. epidermidis, read-out: MIC on the sensitive strains): 16 µg/mL

O=C(O)c1cn(C2CC2)c2cc(N3CCNCC3)c(F)cc2c1=O [Ciprofloxacin, ciprofloxacin, reference compound]
MBIC (individual) (S. aureus biofilms; [1]): >250 µg/mL
MBIC (individual) (S. aureus biofilms; [2]): 6.5 µg/mL
MBIC (individual) (S. aureus biofilms; [3]): >250 µg/mL
MBIC (individual) (S. aureus biofilms; [4]): 250 µg/mL
MBIC (individual) (S. aureus biofilms; [5]): >250 µg/mL
MBIC (individual) (S. aureus biofilms; [6]): >250 µg/mL

CN(C)c1cc(NC(=O)CNC(C)(C)C)c(O)c2c1C[C@H]1C[C@H]3[C@H](N(C)C)C(O)=C(C(N)=O)C(=O)[C@@]3(O)C(O)=C1C2=O [Tigecycline]
MIC (S. aureus; 24 h, S. aureus BK18): 4 µg/mL

CC[C@H]1OC(=O)[C@H](C)[C@@H](O[C@H]2C[C@@](C)(OC)[C@@H](O)[C@H](C)O2)[C@H](C)[C@@H](O[C@@H]2O[C@H](C)C[C@H](N(C)C)[C@H]2O)[C@](C)(O)C[C@@H](C)CN(C)[C@H](C)[C@@H](O)[C@]1(C)O [Azithromycin, azithromycin]
MIC (S. aureus; 24 h, S. aureus BK18): 2 µg/mL

Cc1nnc(SCC2=C(C(=O)O)N3C(=O)[C@@H](NC(=O)Cn4cnnn4)[C@H]3SC2)s1 [Cephazolin, cephazolin]
MIC (drug alone) (S. aureus; S. aureus COL (MRSA)): >10 µg/mL
MIC (drug alone) (S. aureus; S. aureus MW2 (MRSA)): 5 µg/mL
MIC (drug alone) (S. aureus; S. aureus USA 300 (MRSA)): >10 µg/mL
